In test [1] the test system is Leishmania donovani. The test is described as follows: Antileishmanial activity against Leishmania donovani MHOM-ET-67/L82 amastigotes by microplate assay. In kind it is functional, organism-based.
Test [2] can be described thus: Selectivity index, ratio of IC50 for rat L6 cells to IC50 for Leishmania donovani MHOM-ET-67/L82. The format is functional, cell-based.
The subject of test [3] is Trypanosoma cruzi. Description: Antitrypanosomal activity against Trypanosoma cruzi Tulahuen C4 amastigotes by microplate assay. The format is functional, organism-based.
The nature of test [4]: Selectivity index, ratio of IC50 for rat L6 cells to IC50 for Trypanosoma brucei rhodesiense STIB900. In kind it is functional, cell-based.
The subject of test [5] is Trypanosoma brucei rhodesiense. The test is described as follows: Antitrypanosomal activity against Trypanosoma brucei rhodesiense STIB900 trypomastigotes by microplate assay. The format is functional, organism-based.
Test [6] is described as follows: Selectivity index, ratio of IC50 for rat L6 cells to IC50 for Trypanosoma cruzi Tulahuen C4. The format is functional, cell-based.
For test [7], the system named is L6. The test is described as follows: Cytotoxicity against rat L6 cells. In kind it is cell-based.

The term IC50 denotes the concentration that gives 50% inhibition. Low values mean greater potency in that assay, high ones weaker potency in that assay. On to `O=C1C=C(Oc2ccc(Br)cc2Br)C(=O)c2ccccc21`, for which the IC50 in test [1] stood at 2.37 µM; in test [3], 34.3 µM; in test [5], 0.51 µM; in test [7], 28.5 µM. In addition, the figures for the selectivity index in test [2], in test [4] and in test [6] were 12.1, 55.7 and 0.83, respectively.

`O=C1C=C(Oc2ccc(F)cc2F)C(=O)c2ccccc21`: the IC50 in test [1] was 2.29 µM; in test [3], 5 µM; in test [5], 0.39 µM; in test [7] it was 5.51 µM. Further, the selectivity index in test [2] is 2.41; in test [4], 14.2; in test [6] it was 1.1.

For `O=C1C=C(Oc2ccc(Cl)cc2Cl)C(=O)c2cc3ccccc3cc21`, the 50% inhibitory concentration (IC50) in test [1] was 0.49 µM; in test [3], 13.7 µM; in test [5], 0.065 µM; in test [7], 2.01 µM. Also, the selectivity index in test [2] was found to be 4.15; in test [4], 31; in test [6], 0.15.

In the case of `O=C1C=C(Oc2ccc(Cl)cc2F)C(=O)c2cc3ccccc3cc21`, the IC50 turned out to be 0.53 µM in test [1], 21.5 µM in test [3], 0.21 µM in test [5] and 2.64 µM in test [7]. Further, the selectivity index is 5.01 in test [2], 12.4 in test [4] and 0.12 in test [6].

For `Cc1ccc(OC2=CC(=O)c3cc4ccccc4cc3C2=O)c(C)c1`, the 50% inhibitory concentration (IC50) worked out at 0.55 µM in test [1], 22.5 µM in test [3], 0.31 µM in test [5] and 4.13 µM in test [7]. Also, the selectivity index in test [2] amounted to 7.53; in test [4], 13.2; in test [6], 0.18.

On to `O=C1C=C(Oc2ccc(F)cc2Br)C(=O)c2cc3ccccc3cc21`, for which the IC50 is 0.35 µM in test [1], 2.87 µM in test [3], 0.08 µM in test [5] and 1.13 µM in test [7]. Further, the selectivity index in test [2] was determined as 3.24; in test [4], 14.1; in test [6] it was 0.39.

As to `Cc1ccc(OC2=CC(=O)c3cc4ccccc4cc3C2=O)cc1Br`, the IC50 in test [1] turned out to be 0.36 µM; in test [3] it was 6.36 µM; in test [5], 0.15 µM; in test [7] it was 2.56 µM. Also, the values for the selectivity index in test [2], in test [4] and in test [6] were 7.1, 17.4 and 0.4, respectively.

On to `O=C1C=C(Oc2ccccc2)C(=O)c2cc3ccccc3cc21`, for which the half-maximal inhibitory concentration (IC50) in test [1] came out at 0.34 µM; in test [3] it was 4.66 µM; in test [5], 0.05 µM; in test [7] it was 1 µM. Besides, the selectivity index in test [2] turned out to be 2.94; in test [4], 20; in test [6] it was 0.21.

On to `O=C1C=C(Oc2ccc(F)cc2F)C(=O)c2cc3ccccc3cc21`, for which the half-inhibitory concentration (IC50) in test [1] stood at 0.28 µM; in test [3] it was 7.14 µM; in test [5] it was 0.24 µM; in test [7], 1.98 µM. For the same compound, the figures for the selectivity index in test [2], in test [4] and in test [6] were 7.01, 8.43 and 0.28, respectively.

With `O=C1C=C(Oc2ccc(Cl)cc2Cl)C(=O)c2ccccc21`, the concentration for half-maximal inhibition (IC50) in test [1] worked out at 1.32 µM; in test [3], 5.95 µM; in test [5], 0.29 µM; in test [7] it was 5.18 µM. In addition, the selectivity index in test [2] was found to be 3.94; in test [4] it was 17.8; in test [6], 0.87.

As for `O=C1C=C(Oc2ccc(Cl)cc2F)C(=O)c2ccccc21`, the IC50 in test [1] came out at 0.7 µM; in test [3], 4.43 µM; in test [5], 0.37 µM; in test [7], 4.58 µM. The selectivity index in test [2] amounted to 6.54; in test [4], 12.5; in test [6] it was 1.03.

Turning to `Cc1ccc(OC2=CC(=O)c3ccccc3C2=O)c(C)c1`, the IC50 in test [1] was determined as 0.51 µM; in test [3], 2.47 µM; in test [5], 0.22 µM; in test [7], 5.26 µM. Also, the figures for the selectivity index in test [2], in test [4] and in test [6] were 10.3, 24.4 and 2.13, respectively.

Take `O=C1C=C(Oc2ccc(F)cc2Br)C(=O)c2ccccc21`: the IC50 is 1.81 µM in test [1], 3.74 µM in test [3], 0.36 µM in test [5] and 4.66 µM in test [7]. Moreover, the selectivity index in test [2] is 2.58; in test [4] it was 13.1; in test [6] it was 1.25.

For `Cc1ccc(OC2=CC(=O)c3ccccc3C2=O)cc1Br`, the IC50 in test [1] was found to be 0.92 µM; in test [3], 2.88 µM; in test [5], 0.3 µM; in test [7] it was 4.92 µM. In addition, the selectivity index in test [2] came out at 5.34; in test [4], 16.4; in test [6], 1.71.

For `O=C1C=C(Oc2ccccc2)C(=O)c2ccccc21`, the IC50 turned out to be 1.26 µM in test [1], 1.26 µM in test [3], 0.08 µM in test [5] and 5.92 µM in test [7]. The results for the selectivity index in test [2], in test [4] and in test [6] were 4.69, 74 and 4.7, respectively.

Consider `O=C1C=C(Oc2ccc(Br)cc2Br)C(=O)c2cc3ccccc3cc21`, for which the IC50 in test [1] was found to be 0.47 µM; in test [3] it was 16.4 µM; in test [5], 0.14 µM; in test [7], 2.19 µM. Also, the values for the selectivity index in test [2], in test [4] and in test [6] were 4.71, 15.4 and 0.13, respectively.

In test [1], `CCCCCCCCCCCCCCCCOP(=O)([O-])OCC[N+](C)(C)C` [MILTEFOSINE] yielded a 50% inhibitory concentration (IC50) of 0.31 µM. This counts as sub-micromolar.

For the origin of these results see ChEMBL document CHEMBL1141548, “Synthesis of a small library of 2-phenoxy-1,4-naphthoquinone and 2-phenoxy-1,4-anthraquinone derivatives bearing anti-trypanosomal and anti-leishmanial activity” (Bioorg Med Chem Lett, 2008).
